Values quoted from earlier work as cited in patent US20080171791A1, “Compositions and Method for Losing Weight” (MDR Fitness Corp., priority 2007, published 2008).

How the values were obtained:
[1] = long-term / large quantities / higher amounts ingested
[2] = system: mammalian target of rapamycin (mTOR) signaling pathway; conditions: rats; for food intake: administered near arcuate nucleus, approximately four hours after administration, lasted 24 hours
[3] = in vivo
lipogenic genes = conditions: compared with oleic acid (C18-1)

solubility in water	SMILES	reported adverse effects [1]	food intake [2]	crossing the blood-brain barrier [3]	suppression of lipogenic genes (lipogenic genes)	further results
not soluble in water	CCC(C)[C@H](N)C(=O)O (stereo in doubt) [Isoleucine, (2S, 3S)-2-amino-3-methylpentanoic acid]	increased urination				
slightly soluble in water	CC(C)C[C@H](N)C(=O)O [L-leucine, leucine]		decrease	capable of crossing the blood-brain barrier		body weight ([2]; accompanying decrease in food intake): weight loss
water soluble	CC(C)[C@H](N)C(=O)O [L-valine, valine]	hallucinations and crawling sensations on the skin	did not cause the same effect			
	CCCCC/C=C\C/C=C\C/C=C\C/C=C\CCCC(=O)O [arachidonic acid]				more effective	
	CCCCC/C=C\C/C=C\CCCCCCCC(=O)O [linoleic acid]				more effective	
	CCCCCCCCC=CCCCCCCCC(=O)O [oleic acid, 9-octadecenoic acid]			capable of crossing the blood-brain barrier		absorption from the digestive tract [3]: absorbed intact
